# Measurements from ChEMBL document CHEMBL1139353, “Discovery of a new class of potential multifunctional atypical antipsychotic agents targeting dopamine D3 and serotonin 5-HT1A and 5-HT2A receptors: design, synthesis, and effects on behavior” (J Med Chem, 2009).
# Active and inactive are the calls of the source. No cut-off for these calls is given here.
# Experiments:
# Mus musculus [1] = assay: Antipsychotic activity in NMRI mouse assessed as reduction in methamphetamine-induced locomotor activity at 3 mg/kg administered 30 mins prior to testing measured for 60 mins relative to control; format: functional, organism-based; set-up: dose 3 mg/kg
# Histamine H1 receptor = Histamine H1 receptor (Cavia porcellus, UniProt P31389); assay: Displacement of [3H]pyrilamine from histamine H1 receptor in guinea pig cerebellum; format: tissue-based
# Sequence of Histamine H1 receptor (P31389 whole entry): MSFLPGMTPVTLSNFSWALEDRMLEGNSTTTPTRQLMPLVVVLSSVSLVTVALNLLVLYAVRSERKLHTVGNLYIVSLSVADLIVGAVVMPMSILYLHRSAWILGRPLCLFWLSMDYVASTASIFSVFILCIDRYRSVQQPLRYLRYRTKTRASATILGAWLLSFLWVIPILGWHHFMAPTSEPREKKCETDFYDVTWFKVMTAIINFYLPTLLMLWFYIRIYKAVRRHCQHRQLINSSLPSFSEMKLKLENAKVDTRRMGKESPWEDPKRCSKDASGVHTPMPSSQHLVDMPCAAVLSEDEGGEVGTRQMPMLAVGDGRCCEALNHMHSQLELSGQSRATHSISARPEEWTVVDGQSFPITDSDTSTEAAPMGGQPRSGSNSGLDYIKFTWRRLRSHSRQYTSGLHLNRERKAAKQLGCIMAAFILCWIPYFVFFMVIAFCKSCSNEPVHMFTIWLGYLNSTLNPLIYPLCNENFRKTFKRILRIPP
# D(3) dopamine receptor = D(3) dopamine receptor (Homo sapiens, UniProt P35462); assay: Antagonist activity at human dopamine D3 receptor expressed in CHO-K1 cells by [35S]GTPgammaS binding assay; format: functional, cell-based
# Sequence of D(3) dopamine receptor (P35462 whole entry): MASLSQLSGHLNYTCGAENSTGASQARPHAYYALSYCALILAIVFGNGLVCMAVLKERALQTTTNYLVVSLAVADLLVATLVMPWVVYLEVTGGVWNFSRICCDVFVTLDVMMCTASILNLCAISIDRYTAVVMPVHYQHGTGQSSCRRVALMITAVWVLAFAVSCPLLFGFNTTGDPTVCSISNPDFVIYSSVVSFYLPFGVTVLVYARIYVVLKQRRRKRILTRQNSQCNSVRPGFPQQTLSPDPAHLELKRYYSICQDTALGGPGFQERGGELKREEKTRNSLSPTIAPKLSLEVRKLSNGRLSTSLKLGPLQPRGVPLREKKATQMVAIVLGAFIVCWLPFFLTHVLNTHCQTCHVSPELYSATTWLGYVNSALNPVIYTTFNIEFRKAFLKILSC
# [2] = biological target: Voltage-gated inwardly rectifying potassium channel KCNH2 (Homo sapiens, UniProt Q12809)
# Sequence of Voltage-gated inwardly rectifying potassium channel KCNH2 (Q12809 whole entry): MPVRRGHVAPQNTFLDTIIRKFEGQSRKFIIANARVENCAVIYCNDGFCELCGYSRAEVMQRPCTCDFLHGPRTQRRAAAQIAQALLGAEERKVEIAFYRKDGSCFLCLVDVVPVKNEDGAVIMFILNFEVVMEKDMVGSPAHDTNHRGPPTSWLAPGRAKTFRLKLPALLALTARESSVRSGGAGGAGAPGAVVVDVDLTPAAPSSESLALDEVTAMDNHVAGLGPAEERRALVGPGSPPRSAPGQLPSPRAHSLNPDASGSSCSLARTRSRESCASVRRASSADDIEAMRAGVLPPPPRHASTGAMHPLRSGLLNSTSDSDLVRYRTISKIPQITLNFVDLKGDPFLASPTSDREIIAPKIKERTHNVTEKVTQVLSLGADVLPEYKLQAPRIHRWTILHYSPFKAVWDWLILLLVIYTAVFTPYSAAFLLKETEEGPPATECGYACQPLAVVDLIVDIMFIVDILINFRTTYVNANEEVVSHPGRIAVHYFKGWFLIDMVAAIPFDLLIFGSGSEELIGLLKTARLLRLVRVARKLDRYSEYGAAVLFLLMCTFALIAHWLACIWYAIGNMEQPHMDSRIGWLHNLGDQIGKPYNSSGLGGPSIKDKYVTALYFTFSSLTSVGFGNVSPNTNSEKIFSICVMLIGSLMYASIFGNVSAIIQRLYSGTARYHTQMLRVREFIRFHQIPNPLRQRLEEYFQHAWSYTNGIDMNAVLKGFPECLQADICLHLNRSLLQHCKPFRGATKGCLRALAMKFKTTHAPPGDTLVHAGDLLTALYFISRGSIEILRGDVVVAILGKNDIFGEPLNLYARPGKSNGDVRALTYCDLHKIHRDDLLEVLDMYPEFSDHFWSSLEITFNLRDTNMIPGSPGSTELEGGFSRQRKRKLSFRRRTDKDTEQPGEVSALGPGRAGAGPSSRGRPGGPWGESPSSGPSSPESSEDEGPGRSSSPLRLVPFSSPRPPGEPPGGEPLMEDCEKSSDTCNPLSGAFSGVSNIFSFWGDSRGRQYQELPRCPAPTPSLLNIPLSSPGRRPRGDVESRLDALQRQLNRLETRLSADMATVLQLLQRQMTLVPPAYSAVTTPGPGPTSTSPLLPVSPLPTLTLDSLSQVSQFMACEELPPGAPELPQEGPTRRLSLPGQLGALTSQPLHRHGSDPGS
# Description: Binding affinity to human ERG expressed in HEK293 cells by whole cell patch clamp method
# Mus musculus [3] = organism: Mus musculus; settings: in vivo, sc, 1 h
# Description: Toxicity in sc dosed NMRI mouse assessed as cataleptogenic potential administered 30 mins prior to testing measured every 15 mins for 60 mins by horizontal bar test
smiles,measurement,setting,value
Cc1cccc(N2CCN(CCCCNC(=O)c3cc4ccccc4o3)CC2)c1,Activity,Mus musculus [1],Active
same,Ki,Histamine H1 receptor,15 nM
same,IC50,D(3) dopamine receptor,143 nM
same,Ki,[2],930 nM
same,ED50,Mus musculus [3],> 30 mg/kg
